Test results reported in article PMC3914206.

Tests used:
Format in all cases: binding
Design in all cases: KINOMEscan: ABL1(F317L)-phosphorylated / KINOMEscan: ABL1(H396P)-nonphosphorylated / KINOMEscan: ABL1(H396P)-phosphorylated / KINOMEscan: ABL1(M351T)-phosphorylated / KINOMEscan: ABL1(T315I)-phosphorylated / KINOMEscan: ABL1-nonphosphorylated / KINOMEscan: ABL1-phosphorylated / KINOMEscan: ACVR2A / KINOMEscan: ACVR2B / KINOMEscan: ADCK3 / KINOMEscan: ADCK4 / KINOMEscan: AKT1 / KINOMEscan: AKT3 / KINOMEscan: ALK / KINOMEscan: ARK5 / KINOMEscan: AURKA / KINOMEscan: AURKC / KINOMEscan: BIKE / KINOMEscan: BMPR1A / KINOMEscan: BMPR1B / KINOMEscan: BMX / KINOMEscan: BRK / KINOMEscan: BRSK1 / KINOMEscan: BRSK2 / KINOMEscan: CAMK1 / KINOMEscan: CAMK1D / KINOMEscan: CAMK1G / KINOMEscan: CAMK2A / KINOMEscan: CAMK2B / KINOMEscan: AAK1 / KINOMEscan: CAMK2D / KINOMEscan: CAMK2G / KINOMEscan: ABL1(F317I)-nonphosphorylated / KINOMEscan: ABL1(F317I)-phosphorylated / KINOMEscan: ABL1(F317L)-nonphosphorylated: unit: % Ctrl
Conditions in all cases: Compound Concentration 10 µM
[1] = target: T1, panel of 442 kinases (Homo sapiens, UniProt P00519, H396P)
T1 construct: purchased KINOMEscan
Excerpt: (§1) We assessed the selectivity of members of this scaffold using the KINOMEscan methodology across a near comprehensive panel of 442 kinases [[18,27]].

[2] = target: T2, panel of 442 kinases (Homo sapiens, UniProt O76039)
T2 construct: purchased KINOMEscan
T2 sequence (O76039 1-960): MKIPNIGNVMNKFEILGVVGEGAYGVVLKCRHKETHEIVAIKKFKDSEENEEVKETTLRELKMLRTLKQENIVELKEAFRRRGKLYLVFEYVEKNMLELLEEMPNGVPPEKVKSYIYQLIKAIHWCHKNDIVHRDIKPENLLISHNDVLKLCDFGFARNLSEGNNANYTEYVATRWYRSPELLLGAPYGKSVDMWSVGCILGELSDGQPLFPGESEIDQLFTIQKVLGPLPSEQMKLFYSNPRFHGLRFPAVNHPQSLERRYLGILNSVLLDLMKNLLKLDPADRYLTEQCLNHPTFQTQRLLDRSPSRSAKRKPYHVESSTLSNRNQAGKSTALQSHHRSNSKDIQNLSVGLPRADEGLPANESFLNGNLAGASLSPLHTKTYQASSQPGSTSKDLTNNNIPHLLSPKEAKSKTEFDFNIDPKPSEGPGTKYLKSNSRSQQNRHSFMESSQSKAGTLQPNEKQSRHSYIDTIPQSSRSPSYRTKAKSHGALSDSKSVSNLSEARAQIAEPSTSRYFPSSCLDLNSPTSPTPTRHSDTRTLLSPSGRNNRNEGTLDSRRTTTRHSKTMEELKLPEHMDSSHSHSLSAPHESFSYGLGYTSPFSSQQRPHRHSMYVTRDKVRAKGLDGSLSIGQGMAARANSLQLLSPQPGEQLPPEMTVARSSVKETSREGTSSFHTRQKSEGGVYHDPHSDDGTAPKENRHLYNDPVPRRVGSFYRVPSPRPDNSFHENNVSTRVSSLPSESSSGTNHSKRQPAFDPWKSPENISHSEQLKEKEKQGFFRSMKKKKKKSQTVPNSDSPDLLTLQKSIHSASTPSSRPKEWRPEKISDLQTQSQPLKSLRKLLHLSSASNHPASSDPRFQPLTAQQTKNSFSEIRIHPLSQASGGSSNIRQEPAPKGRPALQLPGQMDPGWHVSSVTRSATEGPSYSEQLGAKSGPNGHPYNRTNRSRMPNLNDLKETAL
Excerpt: as §1

[3] = target: T3, panel of 442 kinases (Homo sapiens, UniProt Q9Y2K2)
T3 construct: purchased KINOMEscan
T3 sequence (Q9Y2K2 whole entry): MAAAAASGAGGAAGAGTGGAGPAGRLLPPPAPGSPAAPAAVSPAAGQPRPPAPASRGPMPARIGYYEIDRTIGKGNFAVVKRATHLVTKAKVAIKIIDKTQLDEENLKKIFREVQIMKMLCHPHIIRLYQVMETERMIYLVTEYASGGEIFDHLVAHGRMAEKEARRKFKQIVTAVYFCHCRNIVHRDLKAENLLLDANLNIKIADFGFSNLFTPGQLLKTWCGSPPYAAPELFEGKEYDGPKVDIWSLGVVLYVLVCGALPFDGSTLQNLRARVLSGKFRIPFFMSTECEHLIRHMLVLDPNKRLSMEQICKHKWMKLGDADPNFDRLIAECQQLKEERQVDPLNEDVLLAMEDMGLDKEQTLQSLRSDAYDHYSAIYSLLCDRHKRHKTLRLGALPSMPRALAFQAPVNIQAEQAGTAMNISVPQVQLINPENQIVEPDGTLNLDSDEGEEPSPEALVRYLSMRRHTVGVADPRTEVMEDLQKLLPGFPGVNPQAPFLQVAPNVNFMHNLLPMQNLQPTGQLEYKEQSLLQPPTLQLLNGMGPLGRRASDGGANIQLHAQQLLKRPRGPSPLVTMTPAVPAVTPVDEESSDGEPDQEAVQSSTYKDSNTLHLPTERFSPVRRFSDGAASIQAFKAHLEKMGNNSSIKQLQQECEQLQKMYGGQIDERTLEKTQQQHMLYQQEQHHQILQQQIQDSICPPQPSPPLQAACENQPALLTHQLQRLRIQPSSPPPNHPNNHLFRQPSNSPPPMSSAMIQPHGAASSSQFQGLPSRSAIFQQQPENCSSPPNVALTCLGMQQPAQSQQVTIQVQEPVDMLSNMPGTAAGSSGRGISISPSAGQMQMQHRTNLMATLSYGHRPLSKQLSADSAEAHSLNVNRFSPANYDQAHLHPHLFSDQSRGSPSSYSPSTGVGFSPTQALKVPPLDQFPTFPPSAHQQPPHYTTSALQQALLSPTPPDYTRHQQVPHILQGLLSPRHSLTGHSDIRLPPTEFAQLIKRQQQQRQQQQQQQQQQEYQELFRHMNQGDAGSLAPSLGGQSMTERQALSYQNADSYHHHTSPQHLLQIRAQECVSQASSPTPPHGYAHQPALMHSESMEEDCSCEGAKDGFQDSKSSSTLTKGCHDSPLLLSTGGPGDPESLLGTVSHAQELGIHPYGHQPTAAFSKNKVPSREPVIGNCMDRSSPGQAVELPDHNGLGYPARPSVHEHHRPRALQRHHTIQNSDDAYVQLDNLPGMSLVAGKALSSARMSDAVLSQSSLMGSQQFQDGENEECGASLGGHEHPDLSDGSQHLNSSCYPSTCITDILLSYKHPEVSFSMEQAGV
Excerpt: as §1

Structure (SMILES) | KINOMEscan: ABL1(H396P)-nonphosphorylated [1] | KINOMEscan: ABL1(H396P)-phosphorylated [1] | KINOMEscan: CDKL5 [2] | KINOMEscan: QSK [3]
COc1cc(C(=O)N2CCC(N3CCN(C)CC3)CC2)ccc1Nc1ncc2c(n1)N(C)c1ccccc1C(=O)N2C [15 (LRRK2-IN-1)] | 100 | 100 | 100 | 100
CCOc1cc(C(=O)N2CCC(N3CCN(C)CC3)CC2)ccc1Nc1ncc2c(n1)N(C1CCCC1)c1ccccc1C(=O)N2C [Compound 26] | 86 | 100 | 100 | 100
COc1cc(C(=O)N2CCC(N3CCN(C)CC3)CC2)ccc1Nc1ncc2c(n1)N1CCc3cccc(c31)C(=O)N2C [Compound 24] | 34 | 100 |  | 
COc1cc(C(=O)N2CCC(N3CCN(C)CC3)CC2)ccc1Nc1ncc2c(n1)N(C1CCCC1)c1ccccc1C(=O)N2C [Compound 25, 11-cyclopentyl-2-((2-methoxy-4-(4-(4-methylpiperazin-1-yl)piperidine-1-carbonyl)phenyl)amino)-5-methyl-5H-benzo[e]pyrimido[5,4-b][1,4]diazepin-6(11H)-one] | 47 | 100 | 93 | 100
